Test results published in the supplement of paper PMC11451515.

System: SEM cells
Test: cell viability relative to DMSO control; higher = less cytotoxic
Settings: 48 h
Method in brief: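 NOMO1, SEM and P12-Ichikawa leukemia cells spent at least four passages adapting to each medium before use. They were seeded at 500 cells/well (NOMO1, SEM) or 1000 cells/well (P12-Ichikawa) in 5 μl in 1536-well plates and pin-dosed with library compounds in DMSO at 11 threefold steps from 47 μM down to 0.79 nM. After 48 h at 37°C, CellTiter-Glo One luminescence was read. Viability is reported as a percentage of the DMSO wells on each plate, with cell-free wells as background.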

[1] = HPLM + 10% dialyzed FBS, 0.000781 µM
[2] = HPLM + 10% dialyzed FBS, 0.00234 µM
[3] = HPLM + 10% dialyzed FBS, 0.00702 µM
[4] = HPLM + 10% dialyzed FBS, 0.0211 µM
[5] = HPLM + 10% dialyzed FBS, 0.0632 µM
[6] = HPLM + 10% dialyzed FBS, 0.19 µM
[7] = HPLM + 10% dialyzed FBS, 0.569 µM
[8] = HPLM + 10% dialyzed FBS, 1.71 µM
[9] = HPLM + 10% dialyzed FBS, 5.12 µM
[10] = HPLM + 10% dialyzed FBS, 15.4 µM
[11] = HPLM + 10% dialyzed FBS, 46.1 µM
[12] = RPMI 5 mM glucose + 10% FBS, 0.000781 µM
[13] = RPMI 5 mM glucose + 10% FBS, 0.00234 µM
[14] = RPMI 5 mM glucose + 10% FBS, 0.00702 µM
[15] = RPMI 5 mM glucose + 10% FBS, 0.0211 µM
[16] = RPMI 5 mM glucose + 10% FBS, 0.0632 µM
[17] = RPMI 5 mM glucose + 10% FBS, 0.19 µM
[18] = RPMI 5 mM glucose + 10% FBS, 0.569 µM
[19] = RPMI 5 mM glucose + 10% FBS, 1.71 µM
[20] = RPMI 5 mM glucose + 10% FBS, 5.12 µM
[21] = RPMI 5 mM glucose + 10% FBS, 15.4 µM
[22] = RPMI 5 mM glucose + 10% FBS, 46.1 µM
[23] = RPMI 5 mM glucose + 10% dialyzed FBS, 0.000781 µM
[24] = RPMI 5 mM glucose + 10% dialyzed FBS, 0.00234 µM
[25] = RPMI 5 mM glucose + 10% dialyzed FBS, 0.00702 µM
[26] = RPMI 5 mM glucose + 10% dialyzed FBS, 0.0211 µM
[27] = RPMI 5 mM glucose + 10% dialyzed FBS, 0.0632 µM
[28] = RPMI 5 mM glucose + 10% dialyzed FBS, 0.19 µM
[29] = RPMI 5 mM glucose + 10% dialyzed FBS, 0.569 µM
[30] = RPMI 5 mM glucose + 10% dialyzed FBS, 1.71 µM
[31] = RPMI 5 mM glucose + 10% dialyzed FBS, 5.12 µM
[32] = RPMI 5 mM glucose + 10% dialyzed FBS, 15.4 µM
[33] = RPMI 5 mM glucose + 10% dialyzed FBS, 46.1 µM

Structure (SMILES)	cell viability [1] [%]	cell viability [2] [%]	cell viability [3] [%]	cell viability [4] [%]	cell viability [5] [%]	cell viability [6] [%]	cell viability [7] [%]	cell viability [8] [%]	cell viability [9] [%]	cell viability [10] [%]	cell viability [11] [%]	cell viability [12] [%]	cell viability [13] [%]	cell viability [14] [%]	cell viability [15] [%]	cell viability [16] [%]	cell viability [17] [%]	cell viability [18] [%]	cell viability [19] [%]	cell viability [20] [%]	cell viability [21] [%]	cell viability [22] [%]	cell viability [23] [%]	cell viability [24] [%]	cell viability [25] [%]	cell viability [26] [%]	cell viability [27] [%]	cell viability [28] [%]	cell viability [29] [%]	cell viability [30] [%]	cell viability [31] [%]	cell viability [32] [%]	cell viability [33] [%]
C=CC(=O)Nc1ccc2ncnc(Nc3ccc(OCc4cccc(F)c4)c(Cl)c3)c2c1	75.8	82.7	83.9	84.4	103	91.2	89.7	101	77.5	21.2	18.1	102	105	115	117	95.3	110	118	116	76.1	14.6	12.5	85.5	87.5	88.4	92.4	102	92.4	93	107	77	19.9	11.1
C[C@H]1Oc2cc(cnc2N)-c2c(nn(C)c2C#N)CN(C)C(=O)c2ccc(F)cc21	111	138	114	118	109	126	124	121	117	107	93.7	110	108	110	109	78.1	85.3	102	110	97.4	81.5	60.3	118	128	115	130	131	133	145	132	129	122	116
CCN(CC)CCCC(C)Nc1nc(C)cc(Nc2ccc3nc(C)cc(N)c3c2)n1 (stereo unspecified)	100	104	96.1	100	101	115	106	114	110	99.7	88.2	75.2	80.4	75.3	72.2	69.6	65.5	75.5	75.6	63.9	66.1	72	115	97.1	113	107	100	118	98.9	106	96.4	99.6	86.4
CC[C@@H]1C(=O)N(C)c2cnc(Nc3ccc(C(=O)NC4CCN(C)CC4)cc3OC)nc2N1C1CCCC1	–	–	–	–	–	–	–	–	–	–	–	104	125	114	116	39	19.9	20.8	17.8	13.5	7.48	3.43	117	128	105	128	37.9	23.2	22.1	18.9	11.1	6.14	3.08
CCC(C1CCC(C)C(O1)C(C)C(O)C(C)C(=O)C(CC)C2OC\3(O[C@]4(CC[C@@](C)(O4)C5CC[C@@](O)(CC)C(C)O5)C(O)\C=C3)C(C)CC2C)C([O-])=O (stereo partly specified)	105	13.3	124	103	113	118	116	77.4	29.6	22.9	21.3	107	101	110	107	110	109	98.3	55	25.5	14.3	10.4	58.1	15	97.9	97.9	113	97.8	89.1	50.2	26.9	22.5	14.3
COc1cc2ncn(-c3cc(OCc4ccccc4C(F)(F)F)c(C(N)=O)s3)c2cc1OC	120	121	116	115	115	104	110	65.3	28.6	22.4	20.7	124	121	122	115	124	105	128	74	18.4	13.4	13.1	108	112	124	120	116	142	139	103	25.9	20.3	19.5
N=C(N)Nc1ccc(C(=O)Oc2ccc3cc(C(=N)N)ccc3c2)cc1	95.5	87.7	87.7	92.8	96.7	25.8	102	105	95.4	99.4	79.2	91.5	87.6	85.5	83.1	86.1	21.5	88.7	93.6	88.8	93.4	84	112	90.4	87.3	113	91.7	29.6	99.6	110	92.3	110	80.4
Cc1nc(N)ncc1-c1nc(N2CCOCC2)c2sc(C(C)(C)O)cc2n1	97.7	114	118	118	113	40.1	14.2	9.64	8.13	7.64	5.09	92.7	85.3	78.2	74.2	13.6	11.7	9.07	7.73	6.03	5.59	4.95	115	130	112	122	79.5	17.6	13	9.39	7.85	6.82	5.41
Oc1c(Cl)cc(Cl)c2cccnc12	112	77	121	104	109	120	122	108	104	66.3	12.3	108	102	94	103	102	113	120	91.4	112	71	7.14	107	93.8	85.1	97.2	97.5	96.3	101	116	99.1	59.8	7.1
COc1cc(OC)c(C(=O)CCCN2CCCC2)c(OC)c1	119	117	127	114	115	108	115	113	93	107	109	122	143	118	135	126	118	127	112	109	105	123	–	–	–	–	–	–	–	–	–	–	–
O=C(O)Cc1cccc(OCCCN(Cc2cccc(C(F)(F)F)c2Cl)CC(c2ccccc2)c2ccccc2)c1	109	118	109	97.8	113	102	110	100	93.5	103	94.5	98.3	93.6	95.1	101	86.3	84.5	92	89.5	87.3	84.8	96.4	111	111	109	135	119	113	126	103	96.1	99.2	111
CC1=C(/C=C/C(C)=C/C=C/C(C)=C/C(=O)O)C(C)(C)CCC1	111	114	116	129	133	123	137	145	122	115	102	118	116	139	123	120	123	121	155	124	113	101	112	107	128	99.8	110	120	120	144	102	98.3	84.8
CN(C)CCc1c[nH]c2ccc(C[S+](=O)([O-])N3CCCC3)cc12	78.9	97.3	91.4	104	97.1	97.5	94	109	97.8	86.8	83.6	83.9	93.4	85.7	93.7	101	104	96.8	101	87.2	60.5	67.4	87.5	96	91.5	98.4	107	96.2	88.5	96.7	84.4	77.2	65
Cc1cnc(Nc2ccc(N3CCN(C)CC3)cc2)nc1Nc1cccc([S+](=O)([O-])NC(C)(C)C)c1	110	110	118	114	116	94.9	85.1	27.2	7.39	2.61	3.12	116	113	107	114	104	90.2	77.8	22.8	5.43	2.59	3.4	106	105	119	110	101	88.4	97.9	26.2	7.58	2.94	3.71
Oc1ccc2ccccc2c1SSc1c(O)ccc2ccccc12	95	102	109	116	106	85.8	99.5	96.2	108	97.3	9.05	104	109	95	102	111	79.1	103	99.4	104	78.9	30	95	99.6	84.3	113	92.5	66.9	93.1	104	87.6	74.7	20.1
Nc1ccc([S+](=O)([O-])Nc2ncccn2)cc1	100	103	105	96.8	109	117	99.7	110	103	109	112	110	108	120	86.1	117	117	108	122	126	114	110	111	109	125	74.4	122	136	133	129	145	134	124
